Test results from patent US20250295646A1, “METHODS OF USE OF T-TYPE CALCIUM CHANNEL MODULATORS” (Praxis Precision Medicines, Inc., priority 2022, published 2025).

System: sigma band EEG power during NREM sleep
Assay: EEG/PSG: sigma band EEG power during NREM sleep
Assay type: in vivo, human
Details: for NREM Sigma Power Ratio from Baseline / NREM sigma power from baseline, LS Means: N = 10
Procedure: The effects of multiple doses of a wider dose range (Part A: 5, 10, 20 mg; Part B: 60, 80, 100, 120 mg) on sigma band EEG power during NREM sleep were also evaluated as part of the protocol described in Example 11, above. 24-hour EEG/PSG recordings were performed the day before dosing (baseline day) and after dosing on Days 4, 8, and 12 (for Part A) or Days 10, 17, 24, and 31 (for Part B). Part B also included placebo-treated participants for statistical comparisons.
The pharmacokinetic/pharmacodynamic (PKPD) effects of administration a compound of formula (II) on EEG were also evaluated. The recording of the NREM sigma absolute power was reported as a single summary value of a single night of sleep following each dose on pre-specified days (baseline and Days 4, 8 and 12 for Example 11, Part A and Days 10, 17, 24, and 31 for Part B, as set forth in Tables 22 and 23, above. Each NREM sigma absolute power value was paired with a model predicted average plasma concentration (Cave) that corresponded to the 24-hour EEG recording period on the respective study day. For example, if the period of EEG recording for an individual was from 6 am on Day 4 to 6 am on Day 5, then the corresponding Cave was calculated as the average of the individual's model-predicted concentrations (sampled every 30 minutes) from that same time period. The resulting PKPD data were analyzed in a mixed-effects modelling framework using NONlinear Mixed Effects Modeling (NONMEM) software. The change from baseline NREM sigma absolute power was specified as the outcome and the primary explanatory variable was the Cave of a compound of formula (II).
The population PK model was used to generate Cave for NREM sigma absolute power and concentrations for EO and EC gamma absolute power. For NREM sigma absolute power, the Cave was computed for the final day of each dose level over the EEG collection interval. For EO and EC gamma absolute power, concentrations at 4 hours post-dose and 23.75 hours post-dose were generated on the final day of each dose level. The final population PKPD models for NREM sigma absolute power and EO and EC gamma absolute power were then used to generate corresponding EEG responses.

CC(C)(C)NC(=O)CN1CCC(CNC(=O)c2cc(F)cc(Cl)c2)CC1.Cl [compound of formula (II), N-((1-(2-(tert-butylamino)-2-oxoethyl)piperidin-4-yl)methyl)-3-chloro-5-fluorobenzamide hydrochloride]
sigma band EEG power during NREM sleep, change from baseline (5-120 mg, plateaued after Day 17 (80 mg)): dose-dependent decrease | NREM sigma power, Formula (II) v. Placebo Difference (Day 10): −0.597 | NREM sigma power, Formula (II) v. Placebo Ratio (Day 10): 0.550 | NREM Sigma Power Ratio from Baseline (Day 10 (60 mg)): 0.581 | NREM sigma power from baseline, LS Means (Day 10 (60 mg)): −0.542 | NREM sigma power, Formula (II) v. Placebo Difference (Day 17): −0.697 | NREM sigma power, Formula (II) v. Placebo Ratio (Day 17): 0.498 | NREM Sigma Power Ratio from Baseline (Day 17 (80 mg)): 0.646 | NREM sigma power from baseline, LS Means (Day 17 (80 mg)): −0.437 | NREM sigma power, Formula (II) v. Placebo Difference (Day 24): −0.729 | NREM sigma power, Formula (II) v. Placebo Ratio (Day 24): 0.482 | NREM Sigma Power Ratio from Baseline (Day 24 (100 mg)): 0.498 | NREM sigma power from baseline, LS Means (Day 24 (100 mg)): −0.698 | NREM sigma power, Formula (II) v. Placebo Difference (Day 31): −0.679 | NREM sigma power, Formula (II) v. Placebo Ratio (Day 31): 0.507 | NREM Sigma Power Ratio from Baseline (Day 31 (120 mg)): 0.574 | NREM sigma power from baseline, LS Means (Day 31 (120 mg)): −0.556
